Patent US7250441B2, “Carbazole and cyclopentaindole derivatives to treat infection with Hepatitis C virus” (priority 2004, dated 2007)
pIC50: −log10 of the molar value.

Molecular target: T1, HCV RdRp NS5B d21BK (NS5B from the BK strain, genotype 1b) (Hepatitis C virus genotype 1b, UniProt P26663)
T1 construct: NS5B from the BK strain (genotype 1b) is expressed in E coli as a protein in which the 21 C-terminal amino acids are replaced; made in house; host or cells: E. coli
Experiment: Hepatitis C polymerase inhibition assay, radioactive nucleotide incorporation with filter capture
Format: biochemical
Text: The ability of the compounds of formula (I) to inhibit Hepatitis C Polymerase was established by the following experimental procedure.
NS5B from the BK strain (genotype 1b) is expressed in E coli as a protein in which the 21 C-terminal amino acids are replaced with a short linker and a hexahistidine tag ([…]). The purified protein is mixed with radioactive nucleotides and allowed to replicate a heteropolymeric RNA substrate, primed by an endogenous short hairpin, resulting in an approximately 760 nt product. The radioactive product is captured on a filter and quantitated after removal of the unincorporated nucleotides.
(1) Compounds 10 μl at 10 μg/ml in 15% dimethylsulfoxide (DMSO)
When starting from 100 μg/ml compound stock in 1% DMSO, 5 μl 30% DMSO is dispensed per well. Next, 5 μl compound (100 μg/ml) is dispensed per well.
When starting from 50 μg/ml compound stock in 15% DMSO, 10 μl compound is added per well.
20 μl enzyme mix is added into each well of the assay plate. The compound and enzyme are incubated at room temperature for 15 minutes.
(3) Template mix (prepared in advance)
A tube of RNA (5 μg/tube stored in 75% ethanol and 0.3 M sodium acetate) is microcentrifuged for 20 minutes at 4° C. (one tube supplies 1-1.5 plates). Ethanol is removed from the tube by gently inverting the tube. The RNA is vacuum dried and re-suspended in 1 ml of DEPC water in a tightly capped tube. To dissolve RNA, the RNA solution is incubated on ice for ˜60 minutes and gently vortexed. It is spun briefly to ensure all RNA solution at the bottom of the tube before opening cap. The RNA solution is then gently transferred into a 5 ml or larger tube. Another 3 ml of DEPC water is added to obtain a total of 4 ml of volume.
The following volumes of reagents are added:
20 μl template mix per reaction is added (i.e. 20 ng of pOF per reaction or ˜3 nM)
(4) The reaction is incubated at room temperature (22-25° C.) for 2 hours.
(5) The reaction is quenched by adding 50 μl of 170 mM EDTA.
Final concentration of EDTA is 85 mM.
(6) The filters of Millipore multiscreen assay plate is pre-wet by adding 200 μl of 0.5 M sodium phosphate buffer, pH 7.0 into each well. This stands at room temperature for 2-3 minutes.
(7) The multiscreen filter plate is placed onto a Millipore Manifold under vacuum to allow buffer to flow through. After the vacuum is turned off, 80 μl of the reaction product is transferred into each well of the filter plate. This stands for 2-3 minutes prior to turning on the vacuum again to filter the reaction product.
(8) The vacuum is then removed. 200 μl of 0.5 M sodium phosphate buffer is added, pH 7.0, into each well. The vacuum is then turned on.
Step (8) is repeated three more times.
(9) Next the polypropylene bottom is removed, and the filter is spot dried with a paper towel. The filter plate is air-dried on a bench for 1 hour before adding 40 μl Super Mix scintillant. The top of the plate is sealed with a tape and the plate is placed into a Packard carrier or micro-beta carrier.
(10) The plate is counted using a Packard Topcount or micro-beta counter. Count (for example using Program 10) for ^33P in Top count or ^33P program in micro-beta.
The percent inhibition is calculated after background subtraction as a percent reduction of activity relative to the positive control (average value of the plate excluding the negative controls). For the primary screen hits were chosen as showing >75% inhibition.
See, Ferrari et al. 1999. J. Virology 73:1649-1654: “Characterization of soluble Hepatitis C virus RNA-dependent RNA polymerase expressed in E. coli and Takamizawa et al 1991” and J. Virology 65:1105-1113: “Structure and characterization of Hepatitis C virus genome isolated from human carriers,” both reference are hereby incorporated by reference.

T1 sequence (P26663 2420-2989): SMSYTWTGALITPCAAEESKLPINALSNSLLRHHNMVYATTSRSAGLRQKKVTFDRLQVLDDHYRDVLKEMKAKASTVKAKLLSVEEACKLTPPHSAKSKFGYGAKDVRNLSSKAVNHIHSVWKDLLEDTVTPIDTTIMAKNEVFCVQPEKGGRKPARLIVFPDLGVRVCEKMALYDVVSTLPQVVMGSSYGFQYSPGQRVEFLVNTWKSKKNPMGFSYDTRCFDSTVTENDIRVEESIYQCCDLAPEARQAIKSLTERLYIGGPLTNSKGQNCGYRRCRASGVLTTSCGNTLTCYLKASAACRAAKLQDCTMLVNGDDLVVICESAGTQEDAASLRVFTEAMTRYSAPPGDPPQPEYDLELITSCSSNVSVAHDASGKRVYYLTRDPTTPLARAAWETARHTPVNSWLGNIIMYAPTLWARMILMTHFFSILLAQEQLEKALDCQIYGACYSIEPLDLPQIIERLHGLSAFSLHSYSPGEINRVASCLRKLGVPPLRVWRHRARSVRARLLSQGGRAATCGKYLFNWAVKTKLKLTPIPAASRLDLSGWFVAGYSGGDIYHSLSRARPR

| SMILES | pIC50 |
| --- | --- |
| C=CCC1(C(=O)O)CCc2c1[nH]c1c(C)ccc(C#N)c21 (stereo not shown) [Example 18, 3-Allyl-8-cyano-5-methyl-1,2,3,4-tetrahydro-cyclopenta[b]indole-3-carboxylic acid] | 4.96 |
| C=CCC1(C(=O)O)CCc2c1[nH]c1c(C)cc(F)c(C#N)c21 (stereo not shown) [Example 19, 3-Allyl-8-cyano-7-fluoro-5-methyl-1,2,3,4-tetrahydro-cyclopenta[b]indole-3-carboxylic acid] | 5.20 |
| CCCC1(C(=O)O)CCc2c1[nH]c1c(C)ccc(C#N)c21 (stereo not shown) [Example 20, 8-Cyano-5-methyl-3-propyl-1,2,3,4-tetrahydro-cyclopenta[b]indole-3-carboxylic acid] | 5.33 |
| CCCC1(C(=O)O)CCc2c1[nH]c1c(F)ccc(C#N)c21 (stereo not shown) [Example 21, 8-Cyano-5-fluoro-3-propyl-1,2,3,4-tetrahydro-cyclopenta[b]indole-3-carboxylic acid] | 5.09 |
| CCCC1(C(=O)O)CCc2c1[nH]c1c(C)cc(F)c(C#N)c21 (stereo not shown) [Example 22, 8-Cyano-7-fluoro-5-methyl-3-propyl-1,2,3,4-tetrahydro-cyclopenta[b]indole-3-carboxylic acid] | 5.74 |
| CCC1(C(=O)O)CCCc2c1[nH]c1c(Cl)ccc(Cl)c21 (stereo not shown) [Example 23, 5,8-Dichloro-1-ethyl-2,3,4,9-tetrahydro-1H-carbazole-1-carboxylic acid] | 5.01 |
| CCCC1(C(=O)O)CCCc2c1[nH]c1c(Cl)ccc(Cl)c21 (stereo not shown) [Example 24, 5,8-Dichloro-1-propyl-2,3,4,9-tetrahydro-1H-carbazole-1-carboxylic acid] | 5.49 |
| CCCC1(C(=O)O)CCCc2c1[nH]c1c(F)ccc(C#N)c21 (stereo not shown) [Example 25, 5-Cyano-8-fluoro-1-propyl-2,3,4,9-tetrahydro-1H-carbazole-1-carboxylic acid] | 5.00 |
| N#Cc1ccc(F)c2[nH]c3c(c12)CCCC3(CC1CCC1)C(=O)O (stereo not shown) [Example 26, 5-Cyano-1-cyclobutylmethyl-8-fluoro-2,3,4,9-tetrahydro-1H-carbazole-1-carboxylic acid] | 4.80 |
| CCCC1(C(=O)O)CCCc2c1[nH]c1c(Cl)ccc(C(F)(F)F)c21 (stereo not shown) [Example 27, 8-Chloro-1-propyl-5-trifluoromethyl-2,3,4,9-tetrahydro-1H-carbazole-1-carboxylic acid] | 5.24 |
| CCCC1(C(=O)O)CCCc2c1[nH]c1c(C)ccc(C#N)c21 (stereo not shown) [Example 28, 5-Cyano-8-methyl-1-propyl-2,3,4,9-tetrahydro-1H-carbazole-1-carboxylic acid] | 4.82 |
| C=CCC1(CC(=O)O)CCCc2c1[nH]c1c(F)ccc(F)c21 (stereo not shown) [Example 29, (1-Allyl-5,8-difluoro-2,3,4,9-tetrahydro-1H-carbazol-1-yl)-acetic acid] | 4.49 |
| CCCC1(CC(=O)O)CCCc2c1[nH]c1cc(F)cc(F)c21 (stereo not shown) [Example 30, (5,7-Difluoro-1-propyl-2,3,4,9-tetrahydro-1H-carbazol-1-yl)-acetic acid] | 4.51 |
| C=CCC1(CC(=O)O)CCCc2c1[nH]c1c(F)ccc(C#N)c21 (stereo not shown) [Example 31, (1-Allyl-5-cyano-8-fluoro-2,3,4,9-tetrahydro-1H-carbazol-1-yl)-acetic acid] | 6.43 |
| CCCC1(CC(=O)O)CCCc2c1[nH]c1c(F)ccc(C#N)c21 (stereo not shown) [Example 32, (5-Cyano-8-fluoro-1-propyl-2,3,4,9-tetrahydro-1H-carbazol-1-yl)-acetic acid] | 5.70 |
| CCCC1(CC(=O)O)CCCc2c1[nH]c1c(C(N)=O)ccc(C#N)c21 (stereo not shown) [Example 33, (8-Carbamoyl-5-cyano-1-propyl-2,3,4,9-tetrahydro-1H-carbazol-1-yl)-acetic acid] | 5.23 |
| C=CCC1(CC(=O)O)CCCc2c1[nH]c1c(C#N)ccc(C#N)c21 (stereo not shown) [Example 34, (1-Allyl-5,8-dicyano-2,3,4,9-tetrahydro-1H-carbazol-1-yl)-acetic acid] | 5.47 |
| CCCC1(CC(=O)O)CCCc2c1[nH]c1c(C#N)ccc(C#N)c21 (stereo not shown) [Example 35, (5,8-Dicyano-1-propyl-2,3,4,9-tetrahydro-1H-carbazol-1-yl)-acetic acid] | 5.47 |
| CCCC1(CC(=O)O)CCCc2c1[nH]c1cccc(C#N)c21 (stereo not shown) [Example 36, (5-Cyano-1-propyl-2,3,4,9-tetrahydro-1H-carbazol-1-yl)-acetic acid] | 5.02 |
